Patent US20240350488A1, “METHODS OF TREATING SWI/SNF DEREGULATED CANCERS” (Fred Hutchinson Cancer Center, priority 2023, published 2024)

What was measured:
PDX1 (ARID1A low) = assay: Pre-clinical trial of patient derived xenograft treated with HHT; format: in vivo, mouse; settings: ARID1A low model; HHT 0.7 mg/kg twice daily by oral gavage
From the text: (§1) Arid1a^LoxP/LoxP (Jackson Laboratory), ROSA-LSL-Yfp^KI/KI (Jackson Laboratory), and UBC-Cre^ERT2 (Jackson Laboratory). eEF2K^−/− animals were kindly provided by Alexey G. Ryazanov (Rutgers University). UBC-Cre^ERT2;ROSA-LSL-Yfp^KI/KI;Arid1a^LoxP/LoxP animals (mixed background) were bred to Eef2k^−/− animals (C57BL/6) for one generation to produce progeny heterozygous at all loci (ROSA-LSL-Yfp^KI/+;Arid1a^LoxP/+; eEF2K^+/−) with or without UBC-Cre^ERT2. Heterozygous animals without UBC-Cre^ERT2 were backcrossed once more to ROSA-LSL-Yfp^KI/KI;Arid1a^LoxP/LoxP animals to reintroduce homozygosity at the ARID1A and ROSA-LSL-Yfp, while maintaining heterozygosity at the Eef2k locus (ROSA-LSL-Yfp^KI/KI; Arid1a^LoxP/LoxP; Eef2K^+/−; with and without UBC-Cre^ERT2). […] For survival studies, the body weight of the mouse was recorded and monitored every two days for the duration of the survival trial.
(§2) Tumor pieces (1×1×1 mm) were implanted into the flank of 4-6 weeks old NOD-SCID γ IL-2 mice. Xenografts were measured every 2 days and tumor volume was calculated using the formula (L×W×W)/2, where L is the length of the tumor and W its width. […]

PDX2 (ARID1A medium) = assay: as above; format: in vivo, mouse; settings: ARID1A medium model; HHT 0.7 mg/kg twice daily by oral gavage
From the text: as §1, §2

## COC(=O)C[C@](O)(CCCC(C)(C)O)C(=O)O[C@@H]1C(OC)=C[C@]23CCCN2CCc2cc4c(cc2[C@H]13)OCO4 [HHT, homoharringtonine]
PDX1 (ARID1A low)
  decrease in tumor growth: 59.3%
PDX2 (ARID1A medium)
  decrease in tumor growth: 35.9%
